Source: patent US10517889B2, “Modulators of SMAD7 expression” (Ionis Pharmaceuticals, Inc., priority 2017, dated 2019)

How the values were obtained:
human SMAD7 mRNA [1] = test: Antisense inhibition of human SMAD7 mRNA expression in Hep3B cells by 3-10-3 cEt gapmers, 10,000 nM, electroporation (Example 2); format: cell-based; settings: Hep3B cells, electroporation with 10,000 nM antisense oligonucleotide, approximately 24 hours, SMAD7 mRNA by RT-PCR (RTS5062), relative to untreated control cells
Procedure, shortened: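 SMAD7 mRNA was measured by real-time PCR (RTS5062) with RiboGreen total-RNA normalization, about 24 h after 10,000 nM gapmer was delivered by electroporation into Hep3B cells at 20,000 per well. Gapmers were 16-mer 3-10-3 cEt, fully phosphorothioate; values are % inhibition versus untreated controls.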

human SMAD7 mRNA [2] = test: Dose-dependent inhibition of human SMAD7 mRNA expression in A431 cells, oligonucleotide added without transfection (Example 5, Study 1); format: cell-based; settings: approximately 48 hours; for IC50: SMAD7 mRNA
Procedure, shortened: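 A431 cells dosed with antisense oligonucleotide at 0.08–20.00 μM by free uptake immediately after plating, 48 h at 37° C. SMAD7 mRNA quantified by qRT-PCR (primer probe set RTS5062), normalised to RiboGreen total RNA. Values are % inhibition versus untreated cells.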

[3] = Oligonucleotide concentrations in tissues by LC-MS/MS after oral gavage in CD-1 mice (Example 7); format: in vivo; settings: 500 mg/kg oral gavage once daily for 4 weeks, 48 hours after last dose
Method: Groups of 7-8 week old male CD-1 mice were given an oral gavage dose once daily for 4 weeks of 500 mg/kg of Ionis SMAD7 oligonucleotides. Each group contained 8 mice. One group of male CD-1 mice was administered saline by oral gavage daily.
Oligonucleotide concentrations were detected in various tissues by LC-MS/MS analysis. The greatest concentration was found in the kidney, followed by the colon.

[4] = Body and organ weights after subcutaneous administration in beagle dogs (Example 8); format: in vivo; settings: 30 mg/kg subcutaneous days 1, 3, 5, 8, 15, 22, 29, end of study
Method: (§1) There were 4 animals per group.
Body weights as well as kidney, spleen, liver (with gall bladder), mesenteric lymph node, heart, and thymus weights were measured at the end of the study. […] Ionis SMAD7 oligonucleotides that caused any changes in organ weights outside the expected range for antisense oligonucleotides were excluded from further studies.

[5] = Oligonucleotide concentration in tissues by LC-MS/MS after subcutaneous administration in beagle dogs (Example 8); format: in vivo; settings: 30 mg/kg subcutaneous, 48 hours after the last dose
Method: as §1
Oligonucleotide concentrations of both ION 830025 and ION 798781 were detected in various tissues by LC-MS/MS analysis. The results are presented below, expressed as μg/g tissue. The data was collected 48 hours after the last dose.

dog SMAD7 mRNA = test: Pharmacology: dog SMAD7 mRNA expression in liver, kidney, duodenum, ileum and colon after subcutaneous administration in beagle dogs (Example 8); format: in vivo; settings: 30 mg/kg subcutaneous, necropsy, normalized to HPRT1
Method: as §1
The pharmacological activity of the Ionis oligonucleotides in dogs was assessed by measuring dog SMAD7 mRNA expression in liver, kidney, duodenum, ileum, and colon at necropsy. All the human ASOs used are complementary to dog SMAD7 mRNA.
Tissue samples from all dogs were analyzed for SMAD7 mRNA expression using the primer probe set RTS34649 (forward sequence […], designated SEQ ID NO: 2740; reverse sequence […], designated SEQ ID NO: 2741; probe sequence […], designated SEQ ID NO: 2742), which was normalized to mRNA levels of the housekeeping gene, HPRT1. One-way ANOVA with Dunnet's comparison test was used for statistical analysis.

Substance | % Inhibition (human SMAD7 mRNA [1]) [%] | % inhibition of SMAD7 mRNA expression (human SMAD7 mRNA [2]; 0.08 μM) [%] | % inhibition of SMAD7 mRNA expression (human SMAD7 mRNA [2]; 0.25 μM) [%] | % inhibition of SMAD7 mRNA expression (human SMAD7 mRNA [2]; 0.74 μM) [%] | % inhibition of SMAD7 mRNA expression (human SMAD7 mRNA [2]; 2.22 μM) [%] | % inhibition of SMAD7 mRNA expression (human SMAD7 mRNA [2]; 6.67 μM) [%] | % inhibition of SMAD7 mRNA expression (human SMAD7 mRNA [2]; 20.00 μM) [%] | IC50 (human SMAD7 mRNA [2]) [µM] | Oligonucleotide concentration, Colon [3] [µg/g] | Oligonucleotide concentration, Duodenum [3] [µg/g] | Oligonucleotide concentration, Ileum [3] [µg/g] | Oligonucleotide concentration, Kidney [3] [µg/g] | Oligonucleotide concentration, Liver [3] [µg/g] | Body weight [4] [g] | Heart weight [4] [g] | Kidney weight [4] [g] | Liver weight [4] [g] | Mesenteric LN weight [4] [g] | Spleen weight [4] [g] | Thymus weight [4] [g] | also measured
830037 (antisense CTATTGGCTGATCTGG; 3-10-3 cEt gapmer, further chemistry not given here) [compound 830037] | 67 | 10 | 31 | 29 | 42 | 61 | 67 | 3.4 | 4.8 | 1.2 | 2.7 | 32.4 | 3.9 | 6437 | 51.9 | 36.7 | 204.1 | 9.0 | 23.7 | 6.3 | Full length oligonucleotide, Distal colon [5]: 46 µg/g; Full length oligonucleotide, Duodenum [5]: 55 µg/g; Full length oligonucleotide, Ileum [5]: 67 µg/g; Full length oligonucleotide, Kidney [5]: 894 µg/g; Full length oligonucleotide, Liver [5]: 521 µg/g; Full length oligonucleotide, Proximal colon [5]: 86 µg/g; % inhibition of SMAD7 mRNA expression (compared to control), Distal colon (dog SMAD7 mRNA): 22%; % inhibition of SMAD7 mRNA expression (compared to control), Duodenum (dog SMAD7 mRNA): 33%; % inhibition of SMAD7 mRNA expression (compared to control), Ileum (dog SMAD7 mRNA): 22%; % inhibition of Smad7 mRNA expression (compared to control), Kidney (dog SMAD7 mRNA): 40%; % inhibition of Smad7 mRNA expression (compared to control), Liver (dog SMAD7 mRNA): 0%; % inhibition of SMAD7 mRNA expression (compared to control), Proximal colon (dog SMAD7 mRNA): 50%
830121 (AGAATCAAGCCCTGGC; 3-10-3 cEt gapmer, further chemistry not given here) [compound 830121] | 69 | 11 | 18 | 27 | 21 | 35 | 44 | > 20 | 2.7 | 0.4 | 1.1 | 13.2 | 0.9 | 6091 | 52.6 | 40.0 | 202.0 | 12.2 | 27.5 | 2.8 | Full length oligonucleotide, Distal colon [5]: 20 µg/g; Full length oligonucleotide, Duodenum [5]: 26 µg/g; Full length oligonucleotide, Ileum [5]: 26 µg/g; Full length oligonucleotide, Kidney [5]: 1468 µg/g; Full length oligonucleotide, Liver [5]: 443 µg/g; Full length oligonucleotide, Proximal colon [5]: 19 µg/g; % inhibition of SMAD7 mRNA expression (compared to control), Distal colon (dog SMAD7 mRNA): 21%; % inhibition of SMAD7 mRNA expression (compared to control), Duodenum (dog SMAD7 mRNA): 55%; % inhibition of SMAD7 mRNA expression (compared to control), Ileum (dog SMAD7 mRNA): 0%; % inhibition of Smad7 mRNA expression (compared to control), Kidney (dog SMAD7 mRNA): 39%; % inhibition of Smad7 mRNA expression (compared to control), Liver (dog SMAD7 mRNA): 0%; % inhibition of SMAD7 mRNA expression (compared to control), Proximal colon (dog SMAD7 mRNA): 20%
